Test results reported in PubChem BioAssay AID1963842 (Molecular Pharmacology Branch, DTP, NCI, 2024).

Test system: 677734-321-R-J1-PDC complex spheroid viability
Test: Anticancer human tumor 677734-321-R-J1-PDC patient-derived soft tissue sarcoma cell line growth inhibition [POLQ]
Conditions: for IC50: curve of first compound; for viability, T/C: stronger effect = lower value
Procedure, shortened: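 PDC + HUVEC + MSC complex spheroids; POLQ inhibitors ± partner drugs; top conc. at/near clinical Cmax, else 10 microM (SN-38 1 microM), half-log dilutions; 37 degrees C, 5% CO2.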

[1] = second compound 0.0316 µM, first compound 0.0316 µM
[2] = second compound 0.0316 µM, first compound 0.1 µM
[3] = second compound 0.0316 µM, first compound 0.316 µM
[4] = second compound 0.0316 µM, first compound 1 µM
[5] = second compound 0.0316 µM, first compound 3.16 µM
[6] = second compound 0.0316 µM, first compound 10 µM
[7] = second compound 0.1 µM, first compound 0.0316 µM
[8] = second compound 0.1 µM, first compound 0.1 µM
[9] = second compound 0.1 µM, first compound 0.316 µM
[10] = second compound 0.1 µM, first compound 1 µM
[11] = second compound 0.1 µM, first compound 3.16 µM
[12] = second compound 0.1 µM, first compound 10 µM
[13] = second compound 0.316 µM, first compound 0.0316 µM
[14] = second compound 0.316 µM, first compound 0.1 µM
[15] = second compound 0.316 µM, first compound 0.316 µM
[16] = second compound 0.316 µM, first compound 1 µM
[17] = second compound 0.316 µM, first compound 3.16 µM
[18] = second compound 0.316 µM, first compound 10 µM
[19] = second compound 1 µM, first compound 0.0316 µM
[20] = second compound 1 µM, first compound 0.1 µM
[21] = second compound 1 µM, first compound 0.316 µM
[22] = second compound 1 µM, first compound 1 µM
[23] = second compound 1 µM, first compound 3.16 µM
[24] = second compound 1 µM, first compound 10 µM
[25] = second compound 3.16 µM, first compound 0.0316 µM
[26] = second compound 3.16 µM, first compound 0.1 µM
[27] = second compound 3.16 µM, first compound 0.316 µM
[28] = second compound 3.16 µM, first compound 1 µM
[29] = second compound 3.16 µM, first compound 3.16 µM
[30] = second compound 3.16 µM, first compound 10 µM
[31] = second compound 10 µM, first compound 0.0316 µM
[32] = second compound 10 µM, first compound 0.1 µM
[33] = second compound 10 µM, first compound 0.316 µM
[34] = second compound 10 µM, first compound 1 µM
[35] = second compound 10 µM, first compound 3.16 µM
[36] = second compound 10 µM, first compound 10 µM
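Note: spheroids exposed to compounds for one week.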
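Throughout, for viability, T/C: 100% = vehicle DMSO treated spheroids.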

`CC(C)n1c(=O)n(C)c2cnc3cc(F)c(-c4ccc(OCCCN5CCCCC5)nc4)cc3c21` + COC1C(OC(N)=O)C(O)C(Oc2ccc3c(O)c(NC(=O)c4ccc(O)c(CC=C(C)C)c4)c(=O)oc3c2C)OC1(C)C showed an IC50 (second compound 0.0316 µM) of over 10 µM, an IC50 (second compound 0.1 µM) of over 10 µM and an IC50 (second compound 0.316 µM) of over 10 µM. The IC50 (second compound 1 µM) was over 10 µM, the IC50 (second compound 3.16 µM) was over 10 µM and the IC50 (second compound 10 µM) was over 10 µM. For the same compound, the viability, T/C [1] was 117%, the viability, T/C [2] was 104% and the viability, T/C [3] was 109%. The viability, T/C [4] was 107%, the viability, T/C [5] was 111% and the viability, T/C [6] was 110%. It also gave a viability, T/C [7] of 104%, a viability, T/C [8] of 109% and a viability, T/C [9] of 106%. The viability, T/C [10] was 111%, the viability, T/C [11] was 117% and the viability, T/C [12] was 101%. It also gave a viability, T/C [13] of 108%, a viability, T/C [14] of 107% and a viability, T/C [15] of 106%. It also gave a viability, T/C [16] of 113%, a viability, T/C [17] of 112% and a viability, T/C [18] of 106%. The viability, T/C [19] was 108%, the viability, T/C [20] was 102% and the viability, T/C [21] was 113%. The viability, T/C [22] was 113%, the viability, T/C [23] was 109% and the viability, T/C [24] was 107%. The viability, T/C [25] was 107%, the viability, T/C [26] was 107% and the viability, T/C [27] was 106%. The viability, T/C [28] was 115%, the viability, T/C [29] was 104% and the viability, T/C [30] was 107%. It also gave a viability, T/C [31] of 109%, a viability, T/C [32] of 106% and a viability, T/C [33] of 111%. The viability, T/C [34] was 113%, the viability, T/C [35] was 106% and the viability, T/C [36] was 102%.
`COc1cc2cc(C(=O)CCC(=O)O)sc2cc1OC` + Nc1ccc(C#CCN(C(=O)Cc2ncc(C(F)(F)F)cc2C(F)(F)F)c2ccc(F)cc2)nn1 gave an IC50 (second compound 0.0316 µM) of over 10 µM, an IC50 (second compound 0.1 µM) of over 10 µM and an IC50 (second compound 0.316 µM) of over 10 µM. The IC50 (second compound 1 µM) was over 10 µM, the IC50 (second compound 3.16 µM) was over 10 µM and the IC50 (second compound 10 µM) was over 10 µM. It also gave a viability, T/C [1] of 105%, a viability, T/C [2] of 105% and a viability, T/C [3] of 103%. The viability, T/C [4] was 93.3%, the viability, T/C [5] was 108% and the viability, T/C [6] was 104%. The viability, T/C [7] was 103%, the viability, T/C [8] was 98.5% and the viability, T/C [9] was 100%. The viability, T/C [10] was 98.5%, the viability, T/C [11] was 115% and the viability, T/C [12] was 110%. The viability, T/C [13] was 104%, the viability, T/C [14] was 102% and the viability, T/C [15] was 103%. For the same compound, the viability, T/C [16] was 108%, the viability, T/C [17] was 105% and the viability, T/C [18] was 116%. The viability, T/C [19] was 105%, the viability, T/C [20] was 91.4% and the viability, T/C [21] was 105%. The viability, T/C [22] was 104%, the viability, T/C [23] was 95.2% and the viability, T/C [24] was 109%. The viability, T/C [25] was 97%, the viability, T/C [26] was 98.1% and the viability, T/C [27] was 113%. It also gave a viability, T/C [28] of 109%, a viability, T/C [29] of 109% and a viability, T/C [30] of 112%. It also gave a viability, T/C [31] of 104%, a viability, T/C [32] of 110% and a viability, T/C [33] of 94.6%. It also gave a viability, T/C [34] of 95%, a viability, T/C [35] of 107% and a viability, T/C [36] of 86.3%.
Work on `Nc1ccn(C2OC(CO)C(O)C2(F)F)c(=O)n1` (stereo unspecified) + COC1C(OC(N)=O)C(O)C(Oc2ccc3c(O)c(NC(=O)c4ccc(O)c(CC=C(C)C)c4)c(=O)oc3c2C)OC1(C)C yielded an IC50 (second compound 0.0316 µM) of under 0.0316 µM, an IC50 (second compound 0.1 µM) of under 0.0316 µM and an IC50 (second compound 0.316 µM) of under 0.0316 µM. The IC50 (second compound 1 µM) was under 0.0316 µM, the IC50 (second compound 3.16 µM) was under 0.0316 µM and the IC50 (second compound 10 µM) was under 0.0316 µM. It also gave a viability, T/C [1] of 32.5%, a viability, T/C [2] of 15.3% and a viability, T/C [3] of 13.9%. It also gave a viability, T/C [4] of 11.8%, a viability, T/C [5] of 10.9% and a viability, T/C [6] of 8.72%. The viability, T/C [7] was 38.9%, the viability, T/C [8] was 17.6% and the viability, T/C [9] was 14%. The viability, T/C [10] was 12.8%, the viability, T/C [11] was 8.3% and the viability, T/C [12] was 9.61%. The viability, T/C [13] was 30.9%, the viability, T/C [14] was 16.8% and the viability, T/C [15] was 15.9%. The viability, T/C [16] was 13.1%, the viability, T/C [17] was 12.1% and the viability, T/C [18] was 8.63%. For the same compound, the viability, T/C [19] was 30.2%, the viability, T/C [20] was 17.2% and the viability, T/C [21] was 11.1%. It also gave a viability, T/C [22] of 14.3%, a viability, T/C [23] of 11.7% and a viability, T/C [24] of 7.96%. The viability, T/C [25] was 30.1%, the viability, T/C [26] was 16.6% and the viability, T/C [27] was 12.9%. For the same compound, the viability, T/C [28] was 14.5%, the viability, T/C [29] was 11.4% and the viability, T/C [30] was 8.33%. For the same compound, the viability, T/C [31] was 39.1%, the viability, T/C [32] was 12.8% and the viability, T/C [33] was 12.1%. For the same compound, the viability, T/C [34] was 13.1%, the viability, T/C [35] was 11.1% and the viability, T/C [36] was 11%.
